Results from patent publication US20230158041A1, “METHODS AND COMPOSITIONS FOR TREATING AUTOSOMAL DOMINANT POLYCYSTIC KIDNEY DISEASE” (OTSUKA PHARMACEUTICAL CO.,LTD., priority 2021, published 2023).
Entries after “also recorded” stand apart in the source; their conditions may differ. Marks after values point to notes of the source that are not given here.

Assays:
[1] = test system: plasma protein; experiment: DM-4103 plasma protein binding, micropartition device (Centrifree YM-30) with HPLC-MS/MS; assay type: in vitro ADME
Description: The effect of six other highly plasma protein bound compounds on DM-4103 binding was also evaluated. […] No potential for interaction at either transporter would have been predicted if a free fraction of 0.1% had been used, consistent with the clinical findings.

[2] = Earlier clinical data for tolvaptan and DM-4103 (PK, tolerability; data on file); assay type: in vivo, human
[3] = biological target: T1, human (OATP)1B1 (Homo sapiens, UniProt Q9Y6L6)
T1 sequence (Q9Y6L6 1-691): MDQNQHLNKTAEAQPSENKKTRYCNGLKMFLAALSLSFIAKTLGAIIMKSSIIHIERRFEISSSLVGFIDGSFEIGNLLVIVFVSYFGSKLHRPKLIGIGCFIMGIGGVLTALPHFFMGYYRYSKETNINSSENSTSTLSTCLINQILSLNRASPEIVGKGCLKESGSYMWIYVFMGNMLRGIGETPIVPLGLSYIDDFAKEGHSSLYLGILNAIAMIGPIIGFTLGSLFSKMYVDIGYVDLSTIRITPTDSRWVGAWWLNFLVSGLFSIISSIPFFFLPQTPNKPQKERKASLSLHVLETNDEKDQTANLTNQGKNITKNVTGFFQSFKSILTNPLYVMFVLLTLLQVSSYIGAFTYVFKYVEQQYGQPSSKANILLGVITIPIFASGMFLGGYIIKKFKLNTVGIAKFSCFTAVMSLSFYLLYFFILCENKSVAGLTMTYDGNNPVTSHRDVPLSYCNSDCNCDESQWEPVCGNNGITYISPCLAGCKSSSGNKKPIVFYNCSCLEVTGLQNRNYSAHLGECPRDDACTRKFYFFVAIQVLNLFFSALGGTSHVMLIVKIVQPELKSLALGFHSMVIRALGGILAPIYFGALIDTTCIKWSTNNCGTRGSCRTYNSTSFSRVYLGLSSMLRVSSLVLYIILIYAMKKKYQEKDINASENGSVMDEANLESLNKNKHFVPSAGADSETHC
Description: (OATP)1B1: Estradiol 17β-D-glucuronide transport was evaluated in HEK293 cells stably expressing human (OATP)1B1 (kit with ready to use 24 well plates were obtained from GenoMembrane). […] DM-4103 concentrations of 0.064, 0.32, 1.6, 8.0, 40, and 200 μM were tested.

[4] = biological target: T2, (OAT)3 (Homo sapiens, UniProt Q8TCC7); experiment: Estrone 3-sulfate transport inhibition in HEK293 cells stably expressing human (OAT)3; assay type: cell-based; design: host or cells: HEK293
T2 sequence (Q8TCC7 1-542): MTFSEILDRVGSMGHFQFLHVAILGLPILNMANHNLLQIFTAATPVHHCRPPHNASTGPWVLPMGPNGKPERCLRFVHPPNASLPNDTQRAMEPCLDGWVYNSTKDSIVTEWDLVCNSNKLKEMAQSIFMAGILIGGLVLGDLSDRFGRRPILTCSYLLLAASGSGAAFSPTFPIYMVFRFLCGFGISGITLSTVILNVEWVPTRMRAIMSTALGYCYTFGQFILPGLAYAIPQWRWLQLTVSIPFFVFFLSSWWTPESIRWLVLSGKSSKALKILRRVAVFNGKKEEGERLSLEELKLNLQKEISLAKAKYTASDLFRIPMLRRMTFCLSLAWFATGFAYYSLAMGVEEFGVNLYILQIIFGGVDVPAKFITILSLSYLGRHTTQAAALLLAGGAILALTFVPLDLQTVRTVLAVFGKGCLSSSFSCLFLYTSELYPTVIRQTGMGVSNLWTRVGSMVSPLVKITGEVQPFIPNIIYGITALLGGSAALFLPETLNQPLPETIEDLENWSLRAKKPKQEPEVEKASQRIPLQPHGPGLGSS
Description: (OAT)3: Estrone 3-sulfate transport was evaluated in HEK293 cells stably expressing human (OAT)3 (kit with ready to use 24 well plates were obtained from GenoMembrane). […] DM-4103 concentrations of 0.064, 0.32, 1.6, 8.0, 40, and 200 μM were tested.

[5] = biological target: T2, (OAT)3; experiment: Trial 2: (OAT)3 inhibition, furosemide in presence of DM-4103 vs. furosemide alone; assay type: in vivo; design: endogenous in cells; host or cells: healthy human subjects, in vivo; conditions: furosemide 48 hours following 7 days of 300 mg tolvaptan q.d.
[6] = Trial 1: plasma rosuvastatin PK, tolvaptan and DM-4103 plasma concentrations, adverse events in healthy subjects
Description: (§1) Trial 1 was designed as an open-label, 3-period, sequential crossover. […] On days 7 to 13, 300 mg tolvaptan was administered q.d.
Doses on pharmacokinetic (PK) sampling days were administered in the fasted state with 240 ml of room temperature still water. No food was allowed from 10 h prior to dosing until lunch was given following the 4 h post-dose assessments; water was available ad libitum except for +/−2 h around dosing. On non-PK sampling days, tolvaptan was administered at least 30 min prior to breakfast. Safety was evaluated by laboratory values, vital signs, and 12-lead electrocardiogram (ECG) at screening, day 1, and discharge (no ECG), and adverse event reports.
A 90 mg dose of tolvaptan was chosen as it is the highest dose administered at any given time in the treatment of ADPKD.
The assay used to determine plasma tolvaptan concentrations also included DM-4103 as a standard. The precursor→production was m/z 479→252.

[7] = in vivo; cited from earlier work
[8] = Tolvaptan solubility; assay type: physicochemical; conditions: pH independent
[9] = Phase III ADPKD trials: statin use with tolvaptan; assay type: in vivo, human; conditions: subjects taking tolvaptan alone or tolvaptan plus statins
[10] = Phase II and III congestive heart failure trials: tolvaptan with furosemide; assay type: in vivo, human; conditions: tolvaptan+furosemide compared with placebo+furosemide
[11] = biological target: T3, BCRP (Homo sapiens, UniProt Q9UNQ0)
T3 sequence (Q9UNQ0 1-655): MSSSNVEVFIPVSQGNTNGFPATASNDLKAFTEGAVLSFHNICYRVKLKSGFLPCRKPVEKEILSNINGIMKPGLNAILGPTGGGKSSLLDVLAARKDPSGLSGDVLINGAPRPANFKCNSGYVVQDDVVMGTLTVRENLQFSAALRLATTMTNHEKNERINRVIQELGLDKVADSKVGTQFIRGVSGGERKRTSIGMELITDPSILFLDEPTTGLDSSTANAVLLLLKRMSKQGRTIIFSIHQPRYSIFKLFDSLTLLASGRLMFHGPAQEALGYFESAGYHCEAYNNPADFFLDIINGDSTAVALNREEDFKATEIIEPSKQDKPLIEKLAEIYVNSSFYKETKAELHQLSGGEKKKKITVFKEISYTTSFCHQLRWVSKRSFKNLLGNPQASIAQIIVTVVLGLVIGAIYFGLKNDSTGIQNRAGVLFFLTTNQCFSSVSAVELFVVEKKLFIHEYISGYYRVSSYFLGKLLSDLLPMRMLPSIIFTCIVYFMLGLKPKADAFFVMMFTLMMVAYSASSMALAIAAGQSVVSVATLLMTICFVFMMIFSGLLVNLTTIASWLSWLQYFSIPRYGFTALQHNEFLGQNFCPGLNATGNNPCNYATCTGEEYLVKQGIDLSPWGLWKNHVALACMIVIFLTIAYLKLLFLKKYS
Description: BCRP: Prazosin transport was evaluated in MDCKII BCRP-expressing cells (obtained from SOLVO Biotechnology) precultured for six to eight days.

[12] = 300 mg tolvaptan for 5 days, healthy subjects; cited from earlier work
[13] = biological target: T4, sodium-dependent tauro-cholate co-transporting polypeptide (NTCP) (Homo sapiens, UniProt Q14973); conditions: cited from earlier work
T4 sequence (Q14973 1-349): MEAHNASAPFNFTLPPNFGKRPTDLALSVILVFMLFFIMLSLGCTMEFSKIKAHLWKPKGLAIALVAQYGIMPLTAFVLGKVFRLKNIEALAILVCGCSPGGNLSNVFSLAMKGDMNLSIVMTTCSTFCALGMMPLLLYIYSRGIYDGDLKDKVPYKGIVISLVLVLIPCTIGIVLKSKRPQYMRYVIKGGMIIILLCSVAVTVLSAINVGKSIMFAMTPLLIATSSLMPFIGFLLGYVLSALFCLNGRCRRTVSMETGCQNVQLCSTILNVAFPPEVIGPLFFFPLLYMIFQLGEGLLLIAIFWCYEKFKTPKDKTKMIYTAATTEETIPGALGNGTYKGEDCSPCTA

[14] = test system: sandwich-cultured human hepatocytes; conditions: cited from earlier work
[15] = predicted; cited from earlier work
[16] = biological target: T3, BCRP; experiment: Trial 1: BCRP inhibition, rosuvastatin + tolvaptan vs. rosuvastatin alone; assay type: in vivo; design: endogenous in cells; host or cells: healthy human subjects, in vivo; conditions: 90 mg tolvaptan with 5 mg rosuvastatin calcium
Description: as §1
An analysis of variance with a factor of period and random effect of subjects was performed on the natural-log transformed PK parameters using the MIXED procedure in SAS. From each analysis, the least square means, their difference, and the 90% CI for their difference were derived. Then, the anti-logs of the difference and the confidence limits provided the estimate and 90% CI for the ratio of the geometric means of the test treatment to the reference treatment. Only subjects with values in both treatments were used in the analysis.

With `Cc1ccccc1C(=O)Nc1ccc(C(=O)Nc2ccc(Cl)cc2C(=O)CCC(=O)O)c(C)c1` [DM-4103] the “plasma protein binding (PPB)” value [1] was “greater than 99.8%”, the “DM-4103 binding in presence of six other highly plasma protein bound compounds” value ([1]; all samples, no interactions detected) was “greater than 99.8%” and the plasma concentrations ([2]; first 2 hours following a 90 mg tolvaptan dose) was “less than 100 ng/ml”. For the same molecule, the elimination half-life ([2]; human, in vivo) was about 180 h, the “time to steady-state concentrations after the start of tolvaptan dosing” value ([2]; human, in vivo) was about 8 weeks and the IC50 [3] was 255 nM. For the same molecule, the “inhibitor of (OATP)1B1 in vitro” value [3] was “inhibitor”, the IC50 ([4]; (OAT)3 overexpressing HEK293 cells, read-out: IC50 estimate, inhibition of estrone 3-sulfate transport) was 425 nM and the “DM-4103 concentration at which the ratio is equal to 0.1” value ([4]; Imax,u/IC50 for (OAT)3, fu,p 0.01) was about 2034 ng/mL. The “inhibitor of (OAT)3 in vitro” value ([4]; in vitro) was “inhibitor” and the “inhibition of (OAT)3 in healthy subjects” value [5] was “No inhibition; also recorded: not an inhibitor”.

With `CCCN(CCC)S(=O)(=O)c1ccc(C(=O)O)cc1` [Probenecid] the inhibition at 30 µM ([4]; HEK293, read-out: inhibition of estrone 3-sulfate transport) was 91.1%.

In the case of `CC(C)c1nc(N(C)S(C)(=O)=O)nc(-c2ccc(F)cc2)c1/C=C/[C@@H](O)C[C@@H](O)CC(=O)O` [rosuvastatin], the Tmax ([6]; 5 mg ROS in presence of DM-4103, median) is reported as 4.00 h, the Tmax ([6]; 5 mg rosuvastatin + 90 mg tolvaptan, median) is reported as 3.03 h and the “TEAE incidence: nausea” value ([6]; human, in vivo) is reported as 12.5%. For the same molecule, the AUCt ([6]; human, in vivo, 5 mg) was 18.9 ng·h/mL, the “AUC∞” value ([6]; human, in vivo, 5 mg) was 20.3-36.0** ng*h/ml and the Cmax ([6]; human, in vivo, 5 mg) was 2.81 ng/mL. For the same molecule, the Tmax ([6]; human, in vivo, 5 mg) was 3.50 h, the “t1/2, z” value ([6]; human, in vivo, 5 mg) was 2.4-4.3** h and the “observed increases in rosuvastatin maximal peak plasma concentration (Cmax)” value [7] was “up to 11 fold”.

In the case of `Cc1ccccc1C(=O)Nc1ccc(C(=O)N2CCCC(O)c3cc(Cl)ccc32)c(C)c1` (stereo not shown) [tolvaptan, 7-chloro-5-hydroxy-1-[2-methyl-4-(2-methylbenzoylamino)benzoyl]-2,3,4,5-tetrahydro-1H-benzoazepine], the solubility [8] is reported as “about 0.01 g/250 ml”, the half-life ([2]; human, in vivo) is reported as about 3.5 h and the “accumulation” value ([2]; steady-state concentrations achieved on day 1) is reported as “no accumulation”. For the same molecule, the “statin use or incidences of statin-related adverse events” value [9] was “no differences”, the “incidence of adverse events” value [10] was “similar” and the IC50 [11] was 8320 nM. The “Igut/IC50 (printed as predicted Ki)” value ([11]; human) was 96.4, the “safety and tolerability” value [12] was “safe and well-tolerated” and the “NTCP IC50 value relative to Cmax” value [13] was “higher than Cmax”. For the same molecule, the “inhibitor of NTCP” value [13] was “inhibitor of NTCP”, the “accumulation in sandwich-cultured human hepatocytes” value [14] was “at least 10 fold” and the “liver:blood ratio” value [15] was 38.76. The “inhibition of BCRP in healthy subjects” value [16] was “No clinically-relevant inhibition”.
